Test results from patent publication US11547681B2, “N-acylethanolamide derivatives and uses thereof” (ELIEM THERAPEUTICS, INC., priority 2016, dated 2023).

Legend:
[1] = in vitro; conditions: for Concentration (μM) of analyte PEA, 0 min / Concentration (μM) of analyte PEA, 10 min / Concentration (μM) of analyte PEA, 20 min / Concentration (μM) of analyte PEA, 30 min / Concentration (μM) of analyte PEA, 60 min / % Remaining of Initial (n = 1), 0 min / % Remaining of Initial (n = 1), 10 min / % Remaining of Initial (n = 1), 20 min / % Remaining of Initial (n = 1), 30 min / % Remaining of Initial (n = 1), 60 min / microsomal CLint at 1 μM / half-life at 1 μM / Concentration of analyte I-9 / Concentration of analyte PEA / % Remaining of Initial (n = 1) / Concentration, analyte PEA / microsomal CLint / half-life: male, Sprague-Dawley, rat; for Concentration (μM) of analyte PEA, 0 min / Concentration (μM) of analyte PEA, 10 min / Concentration (μM) of analyte PEA, 20 min / Concentration (μM) of analyte PEA, 30 min / Concentration (μM) of analyte PEA, 60 min / % Remaining of Initial (n = 1), 0 min / % Remaining of Initial (n = 1), 10 min / % Remaining of Initial (n = 1), 20 min / % Remaining of Initial (n = 1), 30 min / % Remaining of Initial (n = 1), 60 min / Concentration of analyte I-9 / Concentration of analyte PEA / % Remaining of Initial (n = 1) / Concentration, analyte PEA: 1 μM
Procedure: The reaction mixture, minus cofactors, was prepared as described below. The test article was added into the reaction mixture at a final concentration of 1 μM. […] An aliquot of the reaction mixture (without cofactor cocktail) was equilibrated in a shaking water bath at 37° C. for 3 minutes. The reaction was initiated by the addition of cofactor cocktail, and the mixture was incubated in a shaking water bath at 37° C. Aliquots (100 μL) were withdrawn at 0, 10, 20, 30, and 60 minutes. All samples were immediately combined with 400 uL of icecold 50/50 acetonitrile/H2O containing 0.1% formic acid and internal standard to terminate the reaction. The samples were then mixed and centrifuged to precipitate proteins. Calibration standards were prepared in matched matrix. All samples and standards were assayed by LC-MS/MS using electrospray ionization for both the dosed prodrug I-9 and the expected drug (PEA). Analytical conditions are outlined in Appendix 4-1. The test article concentration at each time point was compared to the test article concentration at time 0 to determine the percent remaining at each time point. Half-lives were calculated using GraphPad software, fitting to single-phase exponential decay equation.
(§1) Reaction mixture, minus cofactors, was prepared as described below. Test article was added into the reaction mixture at a final concentration of 1 μM. […] An aliquot of the reaction mixture (without cofactor cocktail) was equilibrated in a shaking water bath at 37° C. for 3 minutes. The reaction was initiated by the addition of cofactor cocktail, and the mixture was incubated in a shaking water bath at 37° C. Aliquots (100 μL) were withdrawn at 0, 10, 20, 30, and 60 minutes. Test article samples were immediately combined with 300 μL of ice-cold acetonitrile containing 1% formic acid. Control samples were immediately combined with 400 μL of ice-cold 50/50 acetonitrile (ACN)/dH2O containing 0.1% formic acid and internal standard to terminate the reaction. Samples were then mixed and centrifuged to precipitate proteins. Calibration standards were prepared in matched matrix. Samples and standards were assayed by LC-MS/MS using electrospray ionization for both the dosed prodrug and the expected drug (PEA). Analytical conditions are outlined in Appendix 8-1. Test article concentration at each time point was compared to test article concentration at time 0 to determine the percent remaining at each time point. Halflives were calculated using GraphPad software, fitting to a single-phase exponential decay equation.
as §1, with “for 5” for “for 3”, “minutes. Reaction” for “minutes. The reaction”, “and” for “and the”, “both” for “both the”, “Appendix 10-1.” for “Appendix 8-1.”
Reaction mixture, minus cofactors, was prepared as described below.

[2] = rat, in vivo
[3] = control compound, rat intestinal S9 fraction

SMILES	Concentration (μM) of analyte PEA, 0 min ([1]; 0 min)	Concentration (μM) of analyte PEA, 10 min ([1]; 10 min)	Concentration (μM) of analyte PEA, 20 min ([1]; 20 min)	Concentration (μM) of analyte PEA, 30 min ([1]; 30 min)	Concentration (μM) of analyte PEA, 60 min ([1]; 60 min)	% Remaining of Initial (n = 1), 0 min ([1]; s9, 0 h)	% Remaining of Initial (n = 1), 10 min ([1]; s9, 10 min)	% Remaining of Initial (n = 1), 20 min ([1]; s9, 20 min)	% Remaining of Initial (n = 1), 30 min ([1]; s9, 0.5 h)	% Remaining of Initial (n = 1), 60 min ([1]; s9, 1 h)	microsomal CLint at 1 μM ([1]; s9, CLint (mL/min/mg protein))	half-life at 1 μM ([1]; s9, Half-life (min))	further results
CCCCCCCCCCCCCCCC(=O)NCCOC(=O)CCC [Compound I-2]	0.69 µM	0.63 µM	0.60 µM	0.52 µM	0.52 µM	100%	35%	<1.0%	<1.0%	<1.0%	123 µL/min/mg	0.0933 h	–
CCCCCCCCCCCCCCCC(=O)NCCOC(=O)CCC(=O)OCC(COC(=O)CCCCCCC)OC(=O)CCCCCCC (stereo not drawn) [Compound I-3, PEA-Succinate-Glycerol-Di-Caprylic]	0 µM	0.024 µM	0.037 µM	0.047 µM	0.073 µM	100%	53%	46%	42%	31%	26.8 µL/min/mg	0.433 h	–
CC/C=C\C/C=C\C/C=C\C/C=C\C/C=C\CCCC(=O)OCCNC(=O)CCCCCCCCCCCCCCC [Compound I-5]	0.029 µM	0.062 µM	0.099 µM	0.11 µM	0.18 µM	100%	57%	48%	46%	44%	18.2 µL/min/mg	0.633 h	PEA plasma concentration, 0 (pre-dose) ([2]; male, Sprague-Dawley): 3.66 ng/mL
CCCCC/C=C\C/C=C\CCCCCCCC(=O)OCCNC(=O)CCCCCCCCCCCCCCC [Compound I-6]	0.069 µM	0.088 µM	0.094 µM	0.10 µM	0.11 µM	100%	78%	92%	79%	59%	< 11.6 µL/min/mg	> 1 h	microsomal CLint at 1 μM ([1]; s9, CLint (mL/min/mg protein), calculated value in parentheses): 7.65 µL/min/mg; half-life at 1 μM ([1]; s9, Half-life (min), calculated half-life in parentheses): 1.52 h
CCCCCCCCCCCCCCCC(=O)NCCOC(=O)CCC(=O)OC[C@H]1O[C@@](CO)(O[C@H]2O[C@H](CO)[C@@H](O)[C@H](O)[C@H]2O)[C@@H](O)[C@@H]1O [Compound I-7]	0.042 µM	0.24 µM	0.35 µM	0.47 µM	0.60 µM	100%	60%	37%	31%	13%	–	–	–
CCCCCCCCCCCCCCCC(=O)NCCOC(=O)CCC(=O)OCC(O)CO (stereo not drawn) [Compound I-9]	0.034 µM	0.22 µM	0.31 µM	0.36 µM	0.39 µM	100%	45%	26%	15%	3.6%	–	–	Concentration of analyte I-9 ([1]; 0 min): 770 nM; Concentration of analyte PEA ([1]; 0 min): 31 nM; Concentration of analyte I-9 ([1]; 10 min): 910 nM; Concentration of analyte PEA ([1]; 10 min): 88 nM; Concentration of analyte I-9 ([1]; 20 min): 680 nM; Concentration of analyte PEA ([1]; 20 min): 130 nM; Concentration of analyte I-9 ([1]; 30 min): 580 nM; Concentration of analyte PEA ([1]; 30 min): 160 nM; Concentration of analyte I-9 ([1]; 60 min): 380 nM; Concentration of analyte PEA ([1]; 60 min): 240 nM; % Remaining of Initial (n = 1) ([1]; s9, 0 h): 100%; % Remaining of Initial (n = 1) ([1]; s9, 10 min): 119%; % Remaining of Initial (n = 1) ([1]; s9, 20 min): 88%; % Remaining of Initial (n = 1) ([1]; s9, 0.5 h): 75%; % Remaining of Initial (n = 1) ([1]; s9, 1 h): 49%; microsomal CLint at 1 μM ([1]; s9, CLint): 125 µL/min/mg; half-life at 1 μM ([1]; s9, Half-life): 0.917 h; PEA-prodrug in plasma samples ([2]; po): not detectable
CCCCC/C=C\C/C=C\CCCCCCCC(=O)OCC(COC(=O)CCC(=O)OCCNC(=O)CCCCCCCCCCCCCCC)OC(=O)CCCCCCC/C=C\C/C=C\CCCCC (stereo not drawn) [Compound I-13]	–	–	–	–	–	–	–	–	–	–	–	–	Concentration, analyte PEA ([1]; 0 min): 0 nM; Concentration, analyte PEA ([1]; 10 min): 20 nM; Concentration, analyte PEA ([1]; 20 min): 48 nM; Concentration, analyte PEA ([1]; 30 min): 64 nM; Concentration, analyte PEA ([1]; 60 min): 92 nM; % Remaining of Initial (n = 1) ([1]; s9, 0 h): 100%; % Remaining of Initial (n = 1) ([1]; s9, 10 min): 80%; % Remaining of Initial (n = 1) ([1]; s9, 20 min): 82%; % Remaining of Initial (n = 1) ([1]; s9, 0.5 h): 81%; % Remaining of Initial (n = 1) ([1]; s9, 1 h): 55%; microsomal CLint at 1 μM ([1]; s9, CLint): < 11.6 µL/min/mg; microsomal CLint at 1 μM ([1]; s9, CLint, calculated (in parentheses)): 8.59 µL/min/mg; half-life at 1 μM ([1]; s9, Half-life): > 1 h; half-life at 1 μM ([1]; s9, Half-life, calculated (in parentheses)): 1.35 h
C[C@]12CC[C@H]3[C@@H](CCC4=CC(=O)CC[C@@]43C)[C@@H]1CC[C@@H]2O [Testosterone, testosterone, reference compound]	–	–	–	–	–	–	–	–	–	–	–	–	CLin [1, 3]: < 0.0116 ml/min/mg protein; CLin, calculated value in parentheses [1, 3]: 0.0068 ml/min/mg protein; microsomal CLint ([1]; s9, CLint (ml/min/mg protein), calculated value in parentheses, control compound, rat intestinal S9 fraction, calculated value beyond duration of experiment): 6.52 µL/min/mg; microsomal CLint ([1]; s9, CLint (ml/min/mg protein), control compound, rat intestinal S9 fraction): < 11.6 µL/min/mg; microsomal CLint ([1]; s9, CLint, Control Compound, Rat intestinal S9 fraction): < 11.6 µL/min/mg; microsomal CLint ([1]; s9, CLint, Rat intestinal S9 fraction, control compound): < 11.6 µL/min/mg; microsomal CLint ([1]; s9, Clint, control compound, Example 4 control run): 5.97 µL/min/mg; half-life ([1]; s9, Half-life (min), calculated value in parentheses, control compound, rat intestinal S9 fraction, calculated value beyond duration of experiment): 1.77 h; half-life ([1]; s9, Half-life (min), control compound, rat intestinal S9 fraction): > 1 h; half-life ([1]; s9, Half-life, Control Compound, Rat intestinal S9 fraction): > 1 h; half-life at 1 μM ([1]; s9, Half-life, Rat intestinal S9 fraction): > 1 h; half-life ([1]; s9, Half-life, calculated value in parentheses, control compound, rat intestinal S9 fraction): 1.7 h; half-life ([1]; s9, Half-life, control compound, Example 4 control run): 1.93 h; half-life ([1]; s9, Half-life, control compound, rat intestinal S9 fraction): > 1 h
